# Source: US20220290103A1, “METHODS AND COMPOSITIONS USING AUXOTROPHIC REGULATABLE CELLS” (AUXOLYTIC LTD, priority 2019, published 2022)
# B1: UMPS-7: sgRNA targeting exon 1 of UMPS, SEQ ID NO: 1; target sequence + PAM SEQ ID NO: 5 (nucleic acid)
# guide: GCCCCGCAGAUCGAUGUAGAGUUUUAGAGCUAGAAAUAGCAAGUUAAAAUAAGGCUAGUCCGUUAUCAACUUGAAAAAGUGGCACCGAGUCGGUGCUUUU
# modifications: listed as RNA, chemistry not given here
# How the values were obtained:
# CCR5 knockout T cells = assay: Time course of cell counts with/without UMP or uridine; assay type: cell-based, human; details: with metabolite 250 μg/ml
# Method: (§1) Cells were cryopreserved in BAMBANKER™ medium. After thawing cells were cultured at 37° C., 5% CO2 in X-Vivo 15 (Lonza) supplemented with or without 5% human serum (Sigma-Aldrich) and […] human recombinant IL-2 (Peprotech) and 10 ng/ml human recombinant IL-7 (BD Biosciences). UMP or Uridine was added at 250 μg/ml. 5-FOA was added at 100 μg/ml to 1 mg/ml. During culture, medium was refreshed every 2 days.
# (§2) Genomic DNA was harvested using QUICKEXTRACT™ DNA Extraction Kit (Epicentre). Cells were counted on an automated cell counter using Trypan blue staining or on a CytoFLEX flow cytometer (Beckman Coulter) with automatic plate reader using COUNTBRIGHT™ beads (ThermoFisher) as a reference for normalizing the values. Alternatively, cells were analyzed after staining with fluorochrome-labelled antibodies (Biolegend) on an ACCURI™ C6 flow cytometer (BD Biosciences), which also measures volumes, or a FACS ARIA™ II SORP cell sorter (BD Biosciences). Data was analyzed using Excel (Microsoft) and FlowJo software (Tree Star).
# (§3) T Cells were electroporated and edited as in Example 2 and allowed to recover for a 4-day period in medium with serum, uridine, and UMP. On day 4, cells were shifted to UMP, uridine, or uracil source media.
# Mock edited T cells = assay: as above; assay type: cell-based, human; details: with metabolite 250 μg/ml
# Method: as §1, §2, §3
# UMPS knockout T cells [1] = assay: as above; assay type: cell-based, human; details: to the same level as mock edited cells
# Method: as §1, §2, §3
# UMPS-7 targeted T cells = assay: 5-FOA selection, cell counts after 4 days; assay type: cell-based, human; details: for Survival in 5-FOA compared to control: both mock treated and UMPS targeted cells; for Average number of cells per volume unit: UMPS-7, grown in 5-FOA 4 days, UMP + Urid; for Average of cells per volume unit: UMPS-7, grown in 5-FOA without serum
# Method: (§4) 5-FOA selects for uracil auxotrophic cells in other organisms (e.g. Boeke et al. 1984, Mol. Gen. Genet. 197(2):345-6), which is hereby incorporated by reference in its entirety). To investigate the potential utility of 5-FOA for the selection of uracil auxotrophs among human cells, the UMPS gene was targeted in human T cells by Cas9-gRNA complex electroporation followed by recovery (as shown in Example 2) followed by an assay of resistance to 5-FOA treatment (FIG. 3A). Cells were grown in 5-FOA and a variety of combinations of serum and uracil sources for 4 days before cell counting was performed.
# UMPS^KO/KO hESCs = assay: Auxotrophy assay with different uridine concentrations; assay type: cell-based, human; details: 2.5-250 μg/ml uridine, day 4
# Method: The UMP S locus was disrupted in the hESCs by electroporation of Cas9 RNP and selection of a clone with InDels in exon 1 as evaluated by amplification and Sanger sequencing of the genomic locus. For gene editing, hESCs were treated with 10 μm ROCK inhibitor (Y-27632) for 24 hours before electroporation. Cells at 70-80% confluence were harvested with ACCUTASE® solution (Life Technologies). 500,000 cells were used per reaction with a SpCas9 concentration of 150 μg/mL (Integrated DNA Technologies) and a Cas9:sgRNA molar ratio of 1:3 and electroporation performed in P3 Primary Cell solution (Lonza) in 16-well NUCLEOCUVETTE™ Strips in the 4D NUCLEOFECTOR system (Lonza). Immediately after electroporation, cells were transferred into one well of a […]® protein mixture (Corning, Inc.)-coated 24 well plate containing 500 μl of mTeSR™ media ([…] Technologies) with 10 μM Y-27632. Media was changed 24 hours after editing and Y-27632 was removed 48 hours after.
# An auxotrophy assay was performed over four days with different concentrations of uridine. Microscope photos of wells were taken on day 4 after seeding UMPS^KO/KO hESCs at similar densities and culturing in the presence of different uridine concentrations. […] Quantification of viable cells on day 4 after seeding to evaluate the effect of different uridine concentrations is shown in Table 15.
# UMPS knockout T cells [2] = assay: Cell counts over time after electroporation (Trypan blue); assay type: cell-based, human; details: supplemented at 250 μg/ml
# Description: To evaluate whether the UMPS knockout leads to differential cell proliferation if cultured without the addition of Uridine or Uridine monophosphate (UMP), the cell counts in culture were followed over time by automatic cell counting with Trypan blue staining. UMPS knockout led to lower cell counts from day 2 after electroporation, compared to cells that were mock electroporated or electroporated using Cas9 targeting a different genomic locus (i.e., CCR5) (FIG. 5B).
# In contrast, cell proliferation was not impaired after UMPS knockout if UMP or Uridine were supplemented at high concentrations (250 μg/ml each) (FIG. 5C).
# UMPS locus [3] = assay: InDel frequency at end of culture; assay type: cell-based, human; details: UMPS knockout T cells not exposed to 5-FOA, with metabolite, day 8
# Description: To confirm the results on the genomic level, genomic DNA was harvested at the end of the experiment and InDels were quantified (FIG. 5D-FIG. 5E). FIG. 5D compares the frequency of InDels in different culture conditions for cells not exposed to 5-FOA.
# [4] = also broken down in the liver; cited from earlier work
# Mock T cells = assay: 5-FOA selection, cell counts after 4 days; assay type: cell-based, human; details: for Average number of cells per volume unit: grown in 5-FOA 4 days, UMP + Urid; for Average of cells per volume unit: grown in 5-FOA without serum
# Method: as §4
# UMPS^KO/KO hESCs (GFP+) = assay: 5-FOA resistance in co-culture, FACS; assay type: cell-based, human
# Description: (§5) To assess resistance to 5-FOA, the UMPS-KO hESCs were genetically engineered to express GFP from an expression cassette integrated into a safe-harbor locus for easier identification in co-culture with UMPS-WT cells.
# (§6) These UMPS^KO/KO hESCs were mixed with UMPS^WT/WT cells that were not expressing GFP and followed up by fluorescence-activated cell sorting (FACS) analysis in the presence of different concentrations of 5-FOA. Table 16 provides counts of viable GFP+ and GFP− cells after culture with different 5-FOA concentrations.
# UMPS^WT/WT cells (GFP−) = assay: 5-FOA resistance in co-culture, FACS; assay type: cell-based, human; details: all tested 5-FOA concentrations
# Description: as §5, §6
# [5] = system: UMPS^KO/KO/GFP^+ K562 cells mixed with UMPS^WT/WT/GFP-negative K562 cells; assay: 5-FOA resistance in mixed culture; assay type: cell-based, human
# Method: To determine the resistance of UMPS knockout cells to 5-FOA the purified UMPS^KO/KO/GFP^+ K562 cells were mixed at an equal ratio with UMPS^WT/WT/GFP-negative K562 cells. The cells were cultured in the presence of Uridine and different concentrations of 5-FOA (FIG. 6F).
# [6] = system: UMPS-KO T cells mixed with wild-type T cells; assay: 5-FOA selection in mixed population of T cells, FACS; assay type: cell-based, human
# Description: To evaluate the possibility to select for UMPS^KO/KO cells with 5-FOA, the sorted cells were mixed with wild-type cells, which were labeled with different tracking dyes, and cultured in the presence or absence of 5-FOA. In part of the samples, 5-FOA was only added on the first day (Day 0) while in another group it was supplemented daily. Table 30 and FIG. 7C show the percent (%) of the UMPS-KO T cells (labelled with eFluor670) over time when culturing with or without 5-FOA.
# In fact, FACS analysis of a culture of a mixed population of UMPS knockout and wild-type T cells with 5-FOA. UMPS-KO T cells were labeled with eFluor670, and wild-type cells were labeled with carboxyfluorescein succinimidyl ester (CFSE). […] On Day 0 in the control group not treated with 5-FOA, 47.7% of the cells were UMPS-KO T cells, and 52.1% were wild-type cells. On Day 3 in the group with 5-FOA supplemented daily, 74.0% of the cells were UMPS-KO T cells, while 25.8% were wild-type cells. On Day 3 in the control group not treated with 5-FOA, 43.1% of the cells were UMPS-KO T cells, and 56.4% were wild-type cells.
# UMPS locus [7] = assay: sgRNA activity screening, InDel quantification by ICE and ICE-D; assay type: cell-based, human; details: activated T cells, 4 days after electroporation with Cas9
# Description: sgRNAs were acquired with chemical modifications from Synthego Corporation. The sgRNAs were complexed with Cas9 protein (IDT) at a molar ration of 2.5:1 (sgRNA:protein) and electroporated into activated T cells using a 4D-NUCLEOFECTOR™ system (Lonza). 4 days later, cells were harvested, and genomic DNA extracted using QUICKEXTRACT™ DNA Extraction Kit (Epicentre) according to the manufacturer's protocol. The sgRNA target site was amplified with specific primers (Table 18) and the amplicon sequenced by Sanger sequencing (MCLab, South San Francisco).
# InDel quantification was performed on the sequences using the interference of CRISPR edits (ICE) and ICE-D online tools (ice.synthego.com) (FIG. 5A).
molecule,measurement,setting,value
"O=c1ccn([C@@H]2O[C@H](CO)[C@@H](O)[C@H]2O)c(=O)[nH]1 [Uridine, uridine]",Cell density,CCR5 knockout T cells; Day 4,3.70E+06 cells per ml
same,Cell density,Mock edited T cells; Day 4,3.90E+06 cells per ml
same,Growth of UMPS edited culture,UMPS knockout T cells [1],rescued the growth
same,Survival in 5-FOA compared to control,UMPS-7 targeted T cells,improved the survival
same,Proliferation (microscope photos),UMPS^KO/KO hESCs,proliferated
same,Cell proliferation after UMPS knockout,UMPS knockout T cells [2],not impaired
same,Frameshift InDel frequency,UMPS locus [3],52.5%
same,Overall InDel frequency,UMPS locus [3],77.0%
same,Absorption in the gastrointestinal tract,[4],poorly absorbed
"O=C(O)c1[nH]c(=O)[nH]c(=O)c1F [5-FOA, 5-fluoroorotic acid]",Average number of cells per volume unit,Mock T cells; No Serum,49125.44
same,Average number of cells per volume unit,Mock T cells; With Serum,63071.71
same,Average of cells per volume unit,Mock T cells; UMP,24770.99
same,Average of cells per volume unit,Mock T cells; Uridine,53052.43
same,Average number of cells per volume unit,UMPS-7 targeted T cells; No Serum,72385.14
same,Average number of cells per volume unit,UMPS-7 targeted T cells; With Serum,72181.87
same,Average of cells per volume unit,UMPS-7 targeted T cells; UMP,58299.26
same,Average of cells per volume unit,UMPS-7 targeted T cells; Uridine,77755.72
same,Tolerance of UMPS-KO cells,UMPS^KO/KO hESCs (GFP+); 5-FOA 0.25 μg/ml,tolerated
same,Proliferation of UMPS-KO cells,UMPS^KO/KO hESCs (GFP+); 5-FOA concentrations higher than 0.25 μg/ml,impaired proliferation
same,Sensitivity of UMPS-WT cells,UMPS^WT/WT cells (GFP−),sensitive
same,Proliferation of cells with UMP knockouts,[5]; 5-FOA 10 and 100 μg/ml,proliferated well
same,Cell growth of cells with UMP knockouts,[5]; highest 5-FOA concentration,slowed their cell growth down
same,Percent of UMPS^KO/KO cells in mixed cell population,"[6]; 5-FOA daily, Day 3",74.0%
same,wild-type cells among the cells (FACS),"[6]; 5-FOA only on the first day, Day 0",56.0%
same,UMPS-KO T cells among the cells (FACS),"[6]; 5-FOA supplemented daily, Day 3",74.0%
"O=c1ccn([C@@H]2O[C@H](COP(=O)(O)O)[C@@H](O)[C@H]2O)c(=O)[nH]1 [UMP, Uridine monophosphate]",Cell density,CCR5 knockout T cells; Day 2,1.80E+06 cells per ml
same,Cell density,CCR5 knockout T cells; Day 6,3.80E+06 cells per ml
same,Cell density,Mock edited T cells; Day 4,3.80E+06 cells per ml
same,Cell density,Mock edited T cells; Day 8,3.90E+06 cells per ml
same,Growth of UMPS edited culture,UMPS knockout T cells [1],rescued the growth
same,Survival in 5-FOA compared to control,UMPS-7 targeted T cells,improved the survival
same,Cell proliferation after UMPS knockout,UMPS knockout T cells [2],not impaired
same,Frameshift InDel frequency,UMPS locus [3],46.1%
same,Overall InDel frequency,UMPS locus [3],71.1%
B1,ICE InDels,UMPS locus [7],39%
same,ICE-D InDels,UMPS locus [7],93%
